What was measured:
[1] = system: recombinant HDAC isoforms; experiment: Isoform selectivity assay (overall statement); details: HDAC1, HDAC2, HDAC3, HDAC6, HDAC8
Description: (§1) Following the HDAC inhibition assay using Hela nuclear extract, isoform selectivity was tested using recombinant HDAC isoforms (Biomol, USA).

HDAC3 = HDAC3 (Homo sapiens, UniProt O15379); experiment: Isoform selectivity assay, recombinant HDAC isoforms
Description: as §1

HDAC2 = molecular target: T1, HDAC2 (Homo sapiens, UniProt Q92769); experiment: biochemical
T1 construct: purchased Biomol, USA
Description: Assay was performed in 96-well black microplate and total volume of the assay was 100 μL. Hela nuclear extract was diluted HDAC assay buffer (final concentration of 3.0 μg/mL). Enzyme mixture was made of 10 μL of diluted enzyme and 30 μL of HDAC buffer. 40 μl of enzyme mixture followed by 10 μL of test compound (final concentration from 0.01 to 10 μM) or vehicle (control) was added to each well. The plate was pre-incubated at 37° C. for 10 minutes. The HDAC reaction was started by adding 50 μl of HDAC substrate Boc-Lys (Ac)-AMC (Anaspec, Inc Fremont, Calif., USA). The plate was incubated at 37° C. for 45 minutes. The reaction was stopped by adding 50 μL of Trypsin stop solution and plate further incubated at 37° C. for 15 minutes. Measuring the fluorescence at excitation wavelength of 360 nm and emission wavelength of 460 nm monitored the release of AMC. Buffer alone and substrate alone served as blank.

HDAC6 = HDAC6 (Homo sapiens, UniProt Q9UBN7); experiment: Isoform selectivity assay, recombinant HDAC isoforms
Description: as §1

HDAC8 = HDAC8 (Homo sapiens, UniProt Q9BY41); experiment: as above
Description: as §1

[2] = system: A549 human lung xenograft; experiment: In vivo anti-cancer activity using a human tumor xenograft; set-up: species or system athymic nude mice (nu/nu); details: for % TGI on Day 21: p.o, once daily
Description: The study was carried out in athymic nude mice (nu/nu) of BALB-c background at age 6-8 weeks. The animals were maintained in Individually Ventilated cages in a protected and controlled environment. All animal handling and procedures were carried out in a laminar air flow hood, under anesthesia when necessary. The studies were conducted in compliance with protocols approved by Anthem Biosciences Institutional Animal Ethics Committee (IAEC).
Human cell lines derived from tumors of lung were selected for evaluation. The tumor cells cell lines were grown and expanded in RPMI 1640 (supplemented with 1.5 mM L-glutamine and 10% FBS) Subconfluent monolayers were harvested, pelleted and resuspended in RPMI 1640 medium prior to counting on a haemocytometer. Viable cells were counted using trypan blue exclusion and a cell suspension was made in cold media with a concentration of 5×10^6/ml.
[…] of the cell suspension containing 10^6 cells of greater than 90% viability was mixed with an equal volume of Matrigel (10 mg/ml) in PBS (pH7.4) and was kept at 4 deg C. Nude mice were anaesthetized and were injected subcutaneously in the flank region with 0.1 ml using a 25 gauge needle. Animals were monitored daily during the period between inoculation and palpable tumor growth. Tumor size was measured with a digital Vernier caliper and tumor-bearing mice were randomized into control and treatment groups (n=10) when sufficient tumor volume was attained (approx. 100 mm3). The following formula was used to calculate the tumor volume:
Tumor volume=(length×width2)/2.
[…] Tumor volume and was body weight was measured three times per week.

HDAC1 = HDAC1 (Homo sapiens, UniProt Q13547); experiment: Isoform selectivity assay, recombinant HDAC isoforms
Description: as §1

[3] = Oral bioavailability and pharmacokinetics studies; type: in vivo, male Balb/c mice; details: male Balb/c mouse
Description: The studies were performed to determine the oral bioavailability and pharmacokinetics of test compounds in male Balb/c mice. Study was performed after obtaining the Institutional Animal Ethics Committee (IAEC) permission. Mice aged 5 to 6 weeks weighing around 25 to 30 g were used for this study. The animals were fasted overnight with free access to water. Animals were administered test compounds by oral route at a 50 mg/kg body weight (formulation: 0.5% methylcellulose in water and 0.1% tween 80. Dose volume 10 ml/kg b.w.) or intravenous route at a dose 10 mg/kg b.w. […] (formulation: 0.9% saline. Dose volume 10 ml/kg b.w.) Blood samples were collected at various time points during the next 24 hours post dose. The blood samples were centrifuged at 3000 g for 5 minutes at 4° C. and the corresponding plasma samples were collected in clean pre-labeled tubes. Then, each sample was subjected to a suitable extraction method and analysed by LC-MS/MS (API 3200 LC-MS/MS system). Data was analyzed using WinNonlin version 5.2 (Pharsight).

Chain of HDAC8 (Q9BY41 whole entry): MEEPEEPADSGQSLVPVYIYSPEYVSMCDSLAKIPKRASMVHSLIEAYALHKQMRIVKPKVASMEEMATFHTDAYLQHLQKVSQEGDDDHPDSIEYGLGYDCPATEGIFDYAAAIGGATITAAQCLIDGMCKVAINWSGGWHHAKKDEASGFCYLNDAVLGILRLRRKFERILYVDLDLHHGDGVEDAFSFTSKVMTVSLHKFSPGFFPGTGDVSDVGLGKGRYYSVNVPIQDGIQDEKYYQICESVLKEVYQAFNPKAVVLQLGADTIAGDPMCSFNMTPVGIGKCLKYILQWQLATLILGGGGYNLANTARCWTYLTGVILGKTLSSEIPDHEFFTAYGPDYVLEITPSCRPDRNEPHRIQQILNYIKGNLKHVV
Chain of HDAC6 (Q9UBN7 whole entry, canonical isoform): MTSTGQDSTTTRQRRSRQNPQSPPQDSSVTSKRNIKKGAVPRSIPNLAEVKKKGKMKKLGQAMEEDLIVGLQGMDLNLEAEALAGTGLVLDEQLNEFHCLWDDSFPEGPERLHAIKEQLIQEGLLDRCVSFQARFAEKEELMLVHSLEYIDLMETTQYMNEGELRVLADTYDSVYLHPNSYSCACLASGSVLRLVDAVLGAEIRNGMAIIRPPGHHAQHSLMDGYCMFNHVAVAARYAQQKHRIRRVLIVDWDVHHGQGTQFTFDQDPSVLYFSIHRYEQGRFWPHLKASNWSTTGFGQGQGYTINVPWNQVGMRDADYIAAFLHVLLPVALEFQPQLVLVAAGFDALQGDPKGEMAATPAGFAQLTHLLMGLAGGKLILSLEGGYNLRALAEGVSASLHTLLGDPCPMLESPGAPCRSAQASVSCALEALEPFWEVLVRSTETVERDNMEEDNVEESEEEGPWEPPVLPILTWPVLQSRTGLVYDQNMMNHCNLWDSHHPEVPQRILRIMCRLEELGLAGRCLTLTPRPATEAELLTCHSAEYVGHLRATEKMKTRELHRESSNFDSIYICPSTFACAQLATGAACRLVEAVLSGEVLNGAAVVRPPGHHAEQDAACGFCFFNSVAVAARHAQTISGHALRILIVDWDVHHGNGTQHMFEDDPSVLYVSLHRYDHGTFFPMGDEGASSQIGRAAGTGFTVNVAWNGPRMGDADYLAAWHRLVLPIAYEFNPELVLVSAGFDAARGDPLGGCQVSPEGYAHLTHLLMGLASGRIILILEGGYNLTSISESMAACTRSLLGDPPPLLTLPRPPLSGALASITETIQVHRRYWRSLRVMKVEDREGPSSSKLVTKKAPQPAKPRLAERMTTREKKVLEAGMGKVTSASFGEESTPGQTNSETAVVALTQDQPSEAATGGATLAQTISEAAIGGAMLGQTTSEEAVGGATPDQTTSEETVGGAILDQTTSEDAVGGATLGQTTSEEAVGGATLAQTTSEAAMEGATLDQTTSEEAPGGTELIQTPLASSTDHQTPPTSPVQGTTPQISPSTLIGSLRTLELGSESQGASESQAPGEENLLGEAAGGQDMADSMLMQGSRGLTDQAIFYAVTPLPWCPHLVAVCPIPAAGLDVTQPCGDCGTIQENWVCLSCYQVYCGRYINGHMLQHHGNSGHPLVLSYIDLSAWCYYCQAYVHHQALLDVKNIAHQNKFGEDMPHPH
Chain of HDAC1 (Q13547 whole entry, canonical isoform): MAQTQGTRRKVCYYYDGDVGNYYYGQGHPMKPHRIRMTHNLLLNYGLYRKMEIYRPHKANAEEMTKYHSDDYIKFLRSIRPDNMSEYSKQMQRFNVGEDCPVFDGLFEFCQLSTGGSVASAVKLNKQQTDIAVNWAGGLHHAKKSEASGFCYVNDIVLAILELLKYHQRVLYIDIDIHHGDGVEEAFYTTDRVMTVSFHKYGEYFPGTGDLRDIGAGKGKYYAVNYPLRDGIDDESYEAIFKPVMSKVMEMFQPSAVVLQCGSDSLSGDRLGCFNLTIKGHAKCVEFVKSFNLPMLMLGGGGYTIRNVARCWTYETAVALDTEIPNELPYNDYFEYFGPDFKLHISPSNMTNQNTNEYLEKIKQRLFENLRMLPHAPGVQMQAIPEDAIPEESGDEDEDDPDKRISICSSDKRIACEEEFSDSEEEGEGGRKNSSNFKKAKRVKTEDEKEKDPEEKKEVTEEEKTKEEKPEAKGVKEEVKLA
Chain of HDAC3 (O15379 whole entry, canonical isoform): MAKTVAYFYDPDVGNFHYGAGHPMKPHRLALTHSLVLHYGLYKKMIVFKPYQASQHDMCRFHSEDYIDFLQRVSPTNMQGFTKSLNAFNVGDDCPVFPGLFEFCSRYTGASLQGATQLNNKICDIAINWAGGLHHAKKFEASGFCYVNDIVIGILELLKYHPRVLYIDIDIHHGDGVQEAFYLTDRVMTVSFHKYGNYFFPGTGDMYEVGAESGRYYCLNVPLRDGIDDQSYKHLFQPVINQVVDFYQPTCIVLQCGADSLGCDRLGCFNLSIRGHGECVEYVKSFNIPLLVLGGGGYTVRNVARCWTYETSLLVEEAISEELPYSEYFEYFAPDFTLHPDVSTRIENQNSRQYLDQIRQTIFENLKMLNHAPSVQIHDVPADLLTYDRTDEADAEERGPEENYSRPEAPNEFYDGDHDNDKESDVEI
T1 sequence (Q92769 whole entry): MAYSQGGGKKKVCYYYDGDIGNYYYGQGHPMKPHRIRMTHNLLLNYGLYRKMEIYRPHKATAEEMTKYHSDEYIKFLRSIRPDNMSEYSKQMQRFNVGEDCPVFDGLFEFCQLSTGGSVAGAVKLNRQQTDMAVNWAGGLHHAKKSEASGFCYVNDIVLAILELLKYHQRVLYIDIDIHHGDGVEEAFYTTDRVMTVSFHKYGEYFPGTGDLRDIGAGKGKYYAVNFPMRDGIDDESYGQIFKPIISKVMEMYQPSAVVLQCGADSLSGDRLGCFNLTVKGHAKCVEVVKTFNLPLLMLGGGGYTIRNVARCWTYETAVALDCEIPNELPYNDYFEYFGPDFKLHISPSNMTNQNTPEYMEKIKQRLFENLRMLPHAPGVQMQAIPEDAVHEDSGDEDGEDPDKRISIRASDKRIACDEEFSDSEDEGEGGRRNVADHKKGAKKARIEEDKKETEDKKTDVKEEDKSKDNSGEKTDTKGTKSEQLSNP

AUC last 0 to 24 h ([3]; oral 50 mg/kg) [ng·h/mL] | T1/2 ([3]; oral 50 mg/kg) [min] | bioavailability ([3]; plasma, oral 50 mg/kg vs intravenous) [%] | Cmax ([3]; plasma, oral 50 mg/kg) [ng/mL] | Tmax ([3]; plasma, oral 50 mg/kg) [min] | Structure (SMILES) | isoform selectivity [1] | IC50 (HDAC3) [nM] | IC50 (HDAC2) [nM] | IC50 (HDAC6) [nM] | IC50 (HDAC8) [nM] | % TGI on Day 21 ([2]; 12.5 mg/kg, listed as Ex. 8) [%] | % TGI on Day 21 ([2]; 12.5 mg/kg, listed as Ex.8) [%] | % TGI on Day 21 ([2]; 25 mg/kg, listed as Ex. 8) [%] | % TGI on Day 21 ([2]; 25 mg/kg, listed as Ex.8) [%] | % TGI on Day 21 ([2]; 50 mg/kg, listed as Ex. 8) [%] | % TGI on Day 21 ([2]; 50 mg/kg, listed as Ex.8) [%] | body weight compared to the vehicle control group ([2]; 21 days oral treatment) | IC50 (HDAC1) [nM] | % TGI on Day 21 ([2]; 150 mg/kg) [%]
 |  |  |  |  | O=C(NO)c1ccc(Cn2cc(-c3ccc(CN4CCCC4)cc3)nn2)cc1 [Example 8, N-Hydroxy-4-[4-(4-pyrrolidin-1-ylmethyl-phenyl)-[1,2,3]triazol-1-ylmethyl]-benzamide] | pan-HDAC inhibitor | 2 | 29 | 11 | 282 | 27.3 | 27 | 36.9 | 32 | 52.1 | 57 | no significant reduction in body weight | 25 | 
347 | 48 | 11 ± 3 | 580 | 4.8 | O=C(CCCCCCC(=O)Nc1ccccc1)NO [SAHA, Suberoylanilide Hydroxamic Acid, reference compound] |  |  |  |  |  |  |  |  |  |  |  |  |  | 53.6
